This passage reports minimal effective dose results from patent US10456385B2 (priority 2011, dated 2019).

This assay has as its system Male ICR mice. Kind of assay: Novel Object Recognition Test (NORT) in MK-801-induced amnesia mice. Type of assay: in vivo. To be noted: Mus musculus, po, unit mg/kg from method, read-out: MED (dose at which NORT relative RI is given).
As to `O=C(NC1CN2CCC1CC2)c1ccc(=O)n(-c2nccs2)c1` (centres unmarked) [Example 1, N-(1-azabicyclo[2.2.2]octan-3-yl)-6-oxo-1-(2-thiazolyl)-3-pyridinecarboxamide], the minimal effective dose is 0.03 mg/kg.

On to `O=C(N[C@H]1CN2CCC1CC2)c1ccc(=O)n(-c2nccs2)c1` [Example 2, N-[(3R)-1-azabicyclo[2.2.2]octan-3-yl)-6-oxo-1-(2-thiazolyl)-3-pyridinecarboxamide], for which the minimal effective dose was determined as 0.01 mg/kg.

Take `Cc1cnc(-n2cc(C(=O)NC3CN4CCC3CC4)ccc2=O)s1` (centres unmarked) [Example 10, N-(1-azabicyclo[2.2.2]octan-3-yl)-1-(5-methyl-2-thiazolyl)-6-oxo-3-pyridinecarboxamide]: the minimal effective dose is 0.3 mg/kg.

For `Cc1cnc(-n2cc(C(=O)N[C@H]3CN4CCC3CC4)ccc2=O)s1` [Example 11, N-[(3R)-1-azabicyclo[2.2.2]octan-3-yl]-1-(5-methyl-2-thiazolyl)-6-oxo-3-pyridinecarboxamide], the minimal effective dose turned out to be 0.03 mg/kg. As to `CCc1cnc(-n2cc(C(=O)NC3CN4CCC3CC4)ccc2=O)s1` (centres unmarked) [Example 13, N-(1-azabicyclo[2.2.2]octan-3-yl)-1-(5-ethyl-2-thiazolyl)-6-oxo-3-pyridinecarboxamide], the minimal effective dose was determined as 0.3 mg/kg. Turning to `CCc1cnc(-n2cc(C(=O)N[C@H]3CN4CCC3CC4)ccc2=O)s1` [Example 14, N-[(3R)-1-azabicyclo[2.2.2]octan-3-yl]-1-(5-ethyl-2-thiazolyl)-6-oxo-3-pyridinecarboxamide], the minimal effective dose was 0.03 mg/kg. With `CC(C)c1cnc(-n2cc(C(=O)NC3CN4CCC3CC4)ccc2=O)s1` (centres unmarked) [Example 17, N-(1-azabicyclo[2.2.2]octan-3-yl)-6-oxo-1-(5-propan-2-yl-2-thiazolyl)-3-pyridinecarboxamide], the minimal effective dose was 0.3 mg/kg. Then `CC(C)(C)c1cnc(-n2cc(C(=O)NC3CN4CCC3CC4)ccc2=O)s1` (centres unmarked) [Example 20, N-(1-azabicyclo[2.2.2]octan-3-yl)-1-(5-tert-butyl-2-thiazolyl)-6-oxo-3-pyridinecarboxamide], with 0.3 mg/kg. For `O=C(NC1CN2CCC1CC2)c1ccc(=O)n(-c2ncc(C3CCCCC3)s2)c1` (centres unmarked) [Example 24, N-(1-azabicyclo[2.2.2]octan-3-yl)-1-(5-cyclohexyl-2-thiazolyl)-6-oxo-3-pyridinecarboxamide], the minimal effective dose stood at 0.03 mg/kg. Then `O=C(NC1CN2CCC1CC2)c1ccc(=O)n(-c2ncc(Cl)s2)c1` (centres unmarked) [Example 26, N-(1-azabicyclo[2.2.2]octan-3-yl)-1-(5-chloro-2-thiazolyl)-6-oxo-3-pyridinecarboxamide], with 0.3 mg/kg; and `O=C(NC1CN2CCC1CC2)c1ccc(=O)n(-c2nc3ccccc3s2)c1` (centres unmarked) [Example 33, N-(1-azabicyclo[2.2.2]octan-3-yl)-1-(1,3-benzothiazole-2-yl)-6-oxo-3-pyridinecarboxamide], with 0.01 mg/kg.
